One assay relates to poxvirus vGK5. Format: cell-based.
For assay [1] the following is noted: compared with alpha-tocopherol; cited from earlier work.

The values that follow come from patent publication US20090142431A1 (U.S. Nutraceuticals, LLC d/b/a Valensa International, priority 2005, published 2009).

The structures appear in SMILES notation.

Consider `CC1=C(/C=C/C(C)=C/C=C/C(C)=C/C=C/C=C(C)/C=C/C=C(C)/C=C/C2=C(C)C(=O)C(O)CC2(C)C)C(C)(C)CC(O)C1=O` (stereo not drawn) [astaxanthin, 3,3′-dihydroxy-β,β-carotene-4,4′-dione], for which the IC50 result with poxvirus vGK5 is on record as “less than 125 ppm”. In assay [1], the “ability to quench singlet oxygen relative to alpha-tocopherol” value is listed as “over five hundred times”.
